For 22 compounds, T/C results are on record in PubChem BioAssay AID298 (DTP/NCI, 2004).

For the assay, the system named is MX-1 breast xenograft, intrarenal, nude mice, tumor weight. The assay can be described thus: NCI In Vivo Anticancer Drug Screen. Data for tumor model Human Mammary Carcinoma MX-1 Xenograft (intrarenal inoculation) in NU/NU BALB/C (nude) mice. The following applies: endpoint: mean tumor weight change, higher = larger tumour. In outline:
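Efficacy in vivo: tumor measurement or survival of treated animals divided by that of vehicle-dosed controls.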
(In general: A xenograft is tissue or cells of one species grown in another, often human tumour cells in immunodeficient mice.)

[1] abbreviates: dose: 150.0 mg/kg/injection, schedule: Q04DX003 (sc), vehicle: saline with Tween-80.
The mark [2] stands for this setting: dose: 300.0 mg/kg/injection, schedule: Q04DX003 (sc), vehicle: saline with Tween-80.
The mark [3] stands for this setting: dose: 1200.0 mg/kg/injection, schedule: Q04DX003 (sc), vehicle: saline with Tween-80.
The mark [4] stands for this setting: dose: 300.0 mg/kg/injection, schedule: Q04DX003 (ip), vehicle: saline with Tween-80.
Setting [5] is: dose: 600.0 mg/kg/injection, schedule: Q04DX003 (ip), vehicle: saline with Tween-80.
[6] abbreviates: dose: 150.0 mg/kg/injection, schedule: Q04DX003 (ip), vehicle: saline with Tween-80.
Setting [7] is: dose: 100.0 mg/kg/injection, schedule: Q04DX003 (ip), vehicle: saline.

Several values for one entry are separate records, joined by “and”; a condition that tells them apart may be missing. Equal values may be shown once. Results filed as inconclusive are left out.

Take `O=C(/C=C/c1cccnc1)/C=C/c1cccnc1`: the T/C (dose: 50.0 mg/kg/injection, schedule: Q04DX003 (ip), vehicle: Klucel (hydroxypropylcellulose) (HPC)) is 67 % of control.
In the case of `COC1C(OC(=O)/C=C/C=C/C=C/C=C/C(=O)O)CCC2(CO2)C1C1(C)OC1CC=C(C)C` (stereo not drawn), the T/C runs as follows: (dose: 150.0 mg/kg/injection, schedule: Q04DX003 (sc), vehicle: saline) 102 % of control; (dose: 300.0 mg/kg/injection, schedule: Q04DX003 (sc), vehicle: saline) 96 % of control; (dose: 600.0 mg/kg/injection, schedule: Q04DX003 (sc), vehicle: saline) 62 % of control.
Consider `CC(=O)OCC1OC([S-])C(OC(C)=O)C(OC(C)=O)C1OC(C)=O.CC[PH+](CC)CC.CC[PH+](CC)CC.[Au].[Au]` (stereo not drawn), for which the T/C runs as follows: (dose: 3.13 mg/kg/injection, schedule: Q04DX003 (ip), vehicle: Klucel (hydroxypropylcellulose) (HPC)) 110 % of control; (dose: 12.5 mg/kg/injection, schedule: Q04DX003 (ip), vehicle: Klucel (hydroxypropylcellulose) (HPC)) 73 % of control.
Turning to `CC(=O)Nc1cscc1NC(C)=O`, the T/C reads like this: under setting [1], 198 % of control; under setting [2], 59 % of control; under setting [3], 106 % of control.
As for `Cc1cc2c(=O)cc(-c3ccccc3)oc2c(C(=O)O)c1C`, the T/C is, setting by setting: (dose: 125.0 mg/kg/injection, schedule: Q04DX003 (ip), vehicle: saline with Tween-80) 109 % of control; (dose: 250.0 mg/kg/injection, schedule: Q04DX003 (ip), vehicle: saline with Tween-80) 99 % of control.
Regarding `S=C(NCNC(=S)c1ccncc1)c1ccncc1`, the T/C is 97 % of control under setting [4] and 40 % of control under setting [5].
`CC(C)(C)c1ccc(C(=O)N2CCOC23CCCCC3)cc1`: the T/C under setting [6] is 69 % of control and 87 % of control; the T/C under setting [4] was 96 % of control and 112 % of control; the T/C under setting [5] was 80 % of control and 88 % of control; the T/C (dose: 1200.0 mg/kg/injection, schedule: Q04DX003 (ip), vehicle: saline with Tween-80) was 95 % of control and 106 % of control.
On to `Nc1ccn(C2CC(N)C(CO)O2)c(=O)n1` (stereo not drawn), for which the T/C reads like this: (dose: 75.0 mg/kg/injection, schedule: Q04DX003 (ip), vehicle: saline with Tween-80) 77 % of control; under setting [6], 105 % of control; under setting [4], 74 % of control; under setting [5], 82 % of control.
Take `O=[N+]([O-])c1ccc(N2CCOCC2)c2c1no[n+]2[O-]`: the T/C is 99 % of control under setting [1]; 55 % of control under setting [2]; 74 % of control (dose: 600.0 mg/kg/injection, schedule: Q04DX003 (sc), vehicle: saline with Tween-80); 63 % of control under setting [3].
Consider `CCNC=O`, for which the T/C is, setting by setting: (dose: 200.0 mg/kg/injection, schedule: Q01DX010 (sc), vehicle: saline) 85 % of control; (dose: 400.0 mg/kg/injection, schedule: Q01DX010 (sc), vehicle: saline) 70 % of control; (dose: 800.0 mg/kg/injection, schedule: Q01DX010 (sc), vehicle: saline) 27 % of control.
Consider `CCOC1NC(=O)Oc2ccccc21` (stereo not drawn), for which the T/C runs as follows: (dose: 150.0 mg/kg/injection, schedule: Q04DX003 (ip), vehicle: Klucel (hydroxypropylcellulose) (HPC)) 80 % of control; (dose: 300.0 mg/kg/injection, schedule: Q04DX003 (ip), vehicle: Klucel (hydroxypropylcellulose) (HPC)) 74 % of control; (dose: 600.0 mg/kg/injection, schedule: Q04DX003 (ip), vehicle: Klucel (hydroxypropylcellulose) (HPC)) 86 % of control; (dose: 1200.0 mg/kg/injection, schedule: Q04DX003 (ip), vehicle: Klucel (hydroxypropylcellulose) (HPC)) 79 % of control.
As to `CN1C2C=CC(=O)C1C1C(=O)N(c3ccccc3)C(=O)C12` (stereo not drawn), the T/C is, setting by setting: (dose: 100.0 mg/kg/injection, schedule: Q04DX003 (ip), vehicle: Klucel (hydroxypropylcellulose) (HPC)) 105 % of control; (dose: 200.0 mg/kg/injection, schedule: Q04DX003 (ip), vehicle: Klucel (hydroxypropylcellulose) (HPC)) 77 % of control.
On to `CNc1nc(N(C)C)nc(N(C)C)n1`, for which the T/C (dose: 30.0 mg/kg/injection, schedule: Q01DX010 (sc), vehicle: water) is 1 % of control; the T/C (dose: 60.0 mg/kg/injection, schedule: Q01DX010 (sc), vehicle: water) is -31 % of control; the T/C (dose: 120.0 mg/kg/injection, schedule: Q01DX010 (sc), vehicle: water) was -94 % of control.
Regarding `Cc1c(N)nc(C(CC(N)=O)NCC(N)C(N)=O)nc1C(=O)NC(C(=O)NC(C)C(O)C(C)C(=O)NC(C(=O)NCCc1nc(-c2nc(C(=O)NCCCNC(C)c3ccccc3)cs2)cs1)C(C)O)C(OC1OC(CO)C(O)C(O)C1OC1OC(CO)C(O)C(OC(N)=O)C1O)c1cnc[nH]1` (stereo not drawn), the T/C is 69 % of control (dose: 8.0 mg/kg/injection, schedule: Q01DX010 (sc), vehicle: saline); 55 % of control (dose: 16.0 mg/kg/injection, schedule: Q01DX010 (sc), vehicle: saline); 43 % of control (dose: 32.0 mg/kg/injection, schedule: Q01DX010 (sc), vehicle: saline).
Regarding `CC(=O)O[C@H]1C(=O)[C@@]2(C)[C@H]([C@H](OC(=O)c3ccccc3)[C@]3(O)C[C@H](OC(=O)[C@H](O)[C@@H](NC(=O)c4ccccc4)c4ccccc4)C(C)=C1C3(C)C)[C@]1(OC(C)=O)CO[C@@H]1C[C@@H]2O`, the T/C (dose: 1.88 mg/kg/injection, schedule: Q01DX009 (ip), vehicle: Klucel (hydroxypropylcellulose) (HPC)) was 5 % of control and 16 % of control; the T/C (dose: 2.5 mg/kg/injection, schedule: Q01DX009 (ip), vehicle: Klucel (hydroxypropylcellulose) (HPC)) was 12 % of control; the T/C (dose: 3.75 mg/kg/injection, schedule: Q01DX009 (ip), vehicle: Klucel (hydroxypropylcellulose) (HPC)) was -80 % of control and -100 % of control; the T/C (dose: 4.45 mg/kg/injection, schedule: Q01DX009 (ip), vehicle: Klucel (hydroxypropylcellulose) (HPC)) was -100 % of control; the T/C (dose: 5.0 mg/kg/injection, schedule: Q01DX009 (ip), vehicle: Klucel (hydroxypropylcellulose) (HPC)) is -61 % of control; the T/C (dose: 6.67 mg/kg/injection, schedule: Q01DX009 (ip), vehicle: Klucel (hydroxypropylcellulose) (HPC)) was -100 % of control. Also, the T/C (dose: 7.5 mg/kg/injection, schedule: Q01DX009 (ip), vehicle: Klucel (hydroxypropylcellulose) (HPC)) is -100 % of control; the T/C (dose: 10.0 mg/kg/injection, schedule: Q01DX009 (ip), vehicle: Klucel (hydroxypropylcellulose) (HPC)) was -84 % of control and -100 % of control; the T/C (dose: 15.0 mg/kg/injection, schedule: Q01DX009 (ip), vehicle: Klucel (hydroxypropylcellulose) (HPC)) was -100 % of control.
For the compound `CC(=O)Nc1ccc(Nc2ccc(C(=C3C=CC(=[N+](C)CCC#N)C=C3)c3ccc(N(C)CCC#N)cc3)cc2)cc1`, the T/C is 45 % of control (dose: 12.5 mg/kg/injection, schedule: Q04DX003 (ip), vehicle: saline); 80 % of control (dose: 25.0 mg/kg/injection, schedule: Q04DX003 (ip), vehicle: saline); 63 % of control (dose: 50.0 mg/kg/injection, schedule: Q04DX003 (ip), vehicle: saline); 97 % of control under setting [7]; 84 % of control (dose: 100.0 mg/kg/injection, schedule: Q04DX003 (ip), vehicle: suspension in saline); 45 % of control (dose: 200.0 mg/kg/injection, schedule: Q04DX003 (ip), vehicle: suspension in saline).
Take `CCc1nc(N)nc(N)c1-c1ccc(Cl)c(N=[N+]=[N-])c1`: the T/C (dose: 67.0 mg/kg/injection, schedule: Q04DX003 (ip), vehicle: water) was 85 % of control.
`CO[C@@]12[C@H](COC(N)=O)C3=C(C(=O)C(C)=C(N)C3=O)N1C[C@@H]1N[C@@H]12`: the T/C (dose: 1.5 mg/kg/injection, schedule: Q04DX003 (sc), vehicle: saline) is 9 % of control and 14 % of control; the T/C (dose: 6.0 mg/kg/injection, schedule: Q04DX003 (ip), vehicle: suspension in saline) was -100 % of control; the T/C (dose: 8.0 mg/kg/injection, schedule: Q04DX003 (ip), vehicle: suspension in saline) was -100 % of control.
Regarding `N#Cc1c(-c2ccccc2)c(-c2ccccc2)nn(CC(=O)O)c1=O`, the T/C is, setting by setting: (dose: 100.0 mg/kg/injection, schedule: Q04DX003 (ip), vehicle: distilled water + Tween-80) 120 % of control; (dose: 200.0 mg/kg/injection, schedule: Q04DX003 (ip), vehicle: distilled water + Tween-80) 85 % of control.
Regarding `N#CC(C#N)=C/C=C/c1cccc([N+](=O)[O-])c1`, the T/C by setting is: (dose: 200.0 mg/kg/injection, schedule: Q01DX010 (sc), vehicle: Klucel (hydroxypropylcellulose) (HPC)) 176 % of control; (dose: 400.0 mg/kg/injection, schedule: Q01DX010 (sc), vehicle: Klucel (hydroxypropylcellulose) (HPC)) 214 % of control.
In the case of `CC1C(c2ccccc2)OC(N2CCOCC2)C(C)(C)CN1C` (stereo not drawn), the T/C runs as follows: under setting [6], 112 % of control; under setting [4], 101 % of control; under setting [5], 82 % of control.
Turning to `CN1C2CCC1C(Br)C(=O)C2` (stereo not drawn), the T/C was 100 % of control under setting [7] and 66 % of control (dose: 200.0 mg/kg/injection, schedule: Q04DX003 (ip), vehicle: saline).
